Assay results as given in ChEMBL document CHEMBL4742393, “Compounds for treatment of hypoproliferative disorders” (2019).
Activity calls are given as the source filed them. The rule behind the calls is not given here.

Columns and labels:
[1] = tested on: Mus musculus; assay: Induction of rescue of anemia in RPS19-deficient mouse model for DBA assessed as improvement in erythrocytes production at 10 mg/kg, po dosed every 12 hrs for 5 times and measured 48 hrs after last dose; type: functional, organism-based; conditions: time 108.0 hrs
[2] = biological target: T1, CDK8/CDK19 (Mus musculus) (UniProt Q8R3L8+Q8BWD8); assay: Inhibition of CDK8/CDK19 assessed as rescue of proliferation of RPS19-deficient mouse erythroid progenitor cells by cell-based phenotypic screening assay; type: tissue-based
[3] = biological target: T1, CDK8/CDK19 (Mus musculus); assay: Inhibition of CDK8/CDK19 assessed as rescue of proliferation of RPS19-deficient erythroid progenitor cells isolated from mouse model of DBA by cell-based phenotypic screening assay relative to control; type: tissue-based
[4] = Rescue of cell survival defect in RPS19-deficient erythroid progenitor cells isolated from mouse model of DBA assessed as c-kit+ progenitor cell levels at 5 uM by 7-AAD dye based FACS analysis (reference value: 38%); type: functional
[5] = Rescue of cell survival defect in RPS19-deficient erythroid progenitor cells isolated from mouse model of DBA assessed as live cell levels at 5 uM by 7-AAD dye based FACS analysis (reference value: 31%); type: functional
[6] = tested on: Erythroid progenitor cell; assay: Increase in erythroid maturation of erythroid progenitor cells isolated from DBA patient assessed as increase in CD71 and CD235a positive cells level measured at day 8 of culture by flow cytometry; type: functional, tissue-based; conditions: Homo sapiens
[7] = tested on: CD34-positive (myeloid/lymphoid) cell; assay: Rescue of proliferation of CD34+ erythroid progenitor cells isolated from DBA patient with RPS19 mutation at 200 nM measured at day 14 of culture; type: functional, tissue-based; conditions: Homo sapiens, time 14.0 day
[8] = tested on: Erythroid progenitor cell; assay: Rescue of proliferation of CD34+ erythroid progenitor cells isolated from DBA patient with […] mutation at 200 nM measured at day 14 of culture; type: functional, tissue-based; conditions: Homo sapiens, time 14.0 day
[9] = tested on: CD34-positive (myeloid/lymphoid) cell; assay: Rescue of proliferation of CD34+ erythroid progenitor cells isolated from DBA patient with RPS26 mutation at 200 nM measured at day 14 of culture; type: functional, tissue-based; conditions: Homo sapiens, time 14.0 day
[10] = Rescue of cell survival defect in RPS19-deficient erythroid progenitor cells isolated from mouse model of DBA assessed as c-kit+ progenitor cell levels at 0.03 uM by 7-AAD dye based FACS analysis (reference value: 38%); type: functional
[11] = Rescue of cell survival defect in RPS19-deficient erythroid progenitor cells isolated from mouse model of DBA assessed as live cell levels at 0.03 uM by 7-AAD dye based FACS analysis (reference value: 31%); type: functional
[12] = biological target: Mitogen-activated protein kinase 14 (Homo sapiens) (UniProt Q16539); assay: Inhibition of p38-alpha (unknown origin) assessed as residual ligand binding level at 10000 nM relative to control
[13] = biological target: Dual specificity tyrosine-phosphorylation-regulated kinase 2 (Homo sapiens) (UniProt Q92630); assay: Inhibition of DYRK2 (unknown origin) assessed as residual ligand binding level at 10000 nM relative to control
[14] = biological target: Dual specificity tyrosine-phosphorylation-regulated kinase 1A (Homo sapiens) (UniProt Q13627); assay: Inhibition of DYRK1A (unknown origin) assessed as residual ligand binding level at 10000 nM relative to control
[15] = biological target: Dual specificity tyrosine-phosphorylation-regulated kinase 1B (Homo sapiens) (UniProt Q9Y463); assay: Inhibition of DYRK1B (unknown origin) assessed as residual ligand binding level at 10000 nM relative to control
[16] = biological target: Casein kinase I isoform gamma-2 (Homo sapiens) (UniProt P78368); assay: Inhibition of CSNK1G2 (unknown origin) assessed as residual ligand binding level at 10000 nM relative to control
[17] = biological target: Casein kinase I isoform alpha-like (Homo sapiens) (UniProt Q8N752); assay: Inhibition of CSNK1A1L (unknown origin) assessed as residual ligand binding level at 10000 nM relative to control
[18] = biological target: Ribosomal protein S6 kinase alpha-6 (Homo sapiens) (UniProt Q9UK32); assay: Inhibition of RSK4 c-terminal kinase domain (unknown origin) assessed as residual ligand binding level at 10000 nM relative to control
[19] = biological target: Casein kinase I isoform delta (Homo sapiens) (UniProt P48730); assay: Inhibition of CSNK1D (unknown origin) assessed as residual ligand binding level at 10000 nM relative to control
[20] = biological target: Casein kinase I isoform alpha (Homo sapiens) (UniProt P48729); assay: Inhibition of CSNK1A1 (unknown origin) assessed as residual ligand binding level at 10000 nM relative to control
[21] = biological target: Cyclin-dependent kinase 19 (Homo sapiens) (UniProt Q9BWU1); assay: Inhibition of CDK19(CDK11) (unknown origin) assessed as residual ligand binding level at 10000 nM relative to control
[22] = biological target: Homeodomain-interacting protein kinase 1 (Homo sapiens) (UniProt Q86Z02); assay: Inhibition of HIPK1 (unknown origin) assessed as residual ligand binding level at 10000 nM relative to control
[23] = biological target: Casein kinase I isoform gamma-3 (Homo sapiens) (UniProt Q9Y6M4); assay: Inhibition of CSNK1G3 (unknown origin) assessed as residual ligand binding level at 10000 nM relative to control
[24] = species on record: Homo sapiens; assay: Inhibition of GCN2 kinase domain 2 […] mutant (unknown origin) assessed as residual ligand binding level at 10000 nM relative to control
[25] = biological target: Casein kinase I isoform gamma-1 (Homo sapiens) (UniProt Q9HCP0); assay: Inhibition of CSNK1G1 (unknown origin) assessed as residual ligand binding level at 10000 nM relative to control
[26] = biological target: TGF-beta receptor type-1 (Homo sapiens) (UniProt P36897); assay: Inhibition of TGFBR1 (unknown origin) assessed as residual ligand binding level at 10000 nM relative to control
[27] = biological target: Death-associated protein kinase 1 (Homo sapiens) (UniProt P53355); assay: Inhibition of DAPK1 (unknown origin) assessed as residual ligand binding level at 10000 nM relative to control
[28] = biological target: Serine/threonine-protein kinase pim-1 (Homo sapiens) (UniProt P11309); assay: Inhibition of PIM1 (unknown origin) assessed as residual ligand binding level at 10000 nM relative to control
[29] = biological target: Casein kinase I isoform epsilon (Homo sapiens) (UniProt P49674); assay: Inhibition of CSNK1E (unknown origin) assessed as residual ligand binding level at 10000 nM relative to control
Sequence of Casein kinase I isoform epsilon (Homo sapiens) (P49674 whole entry, looked up, canonical isoform): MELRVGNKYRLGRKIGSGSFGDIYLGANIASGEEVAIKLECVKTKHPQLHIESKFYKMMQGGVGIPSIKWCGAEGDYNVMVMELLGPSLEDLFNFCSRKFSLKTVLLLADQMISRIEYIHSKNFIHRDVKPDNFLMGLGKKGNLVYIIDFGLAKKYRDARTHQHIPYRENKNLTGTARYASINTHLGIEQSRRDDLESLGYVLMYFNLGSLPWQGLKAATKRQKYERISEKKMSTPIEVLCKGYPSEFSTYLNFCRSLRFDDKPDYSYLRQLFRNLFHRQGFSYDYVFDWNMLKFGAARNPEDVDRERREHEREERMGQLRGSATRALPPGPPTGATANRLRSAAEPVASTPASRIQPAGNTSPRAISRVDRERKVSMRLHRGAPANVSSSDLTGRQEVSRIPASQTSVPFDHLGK

T1 sequence (Q8BWD8 whole entry, looked up): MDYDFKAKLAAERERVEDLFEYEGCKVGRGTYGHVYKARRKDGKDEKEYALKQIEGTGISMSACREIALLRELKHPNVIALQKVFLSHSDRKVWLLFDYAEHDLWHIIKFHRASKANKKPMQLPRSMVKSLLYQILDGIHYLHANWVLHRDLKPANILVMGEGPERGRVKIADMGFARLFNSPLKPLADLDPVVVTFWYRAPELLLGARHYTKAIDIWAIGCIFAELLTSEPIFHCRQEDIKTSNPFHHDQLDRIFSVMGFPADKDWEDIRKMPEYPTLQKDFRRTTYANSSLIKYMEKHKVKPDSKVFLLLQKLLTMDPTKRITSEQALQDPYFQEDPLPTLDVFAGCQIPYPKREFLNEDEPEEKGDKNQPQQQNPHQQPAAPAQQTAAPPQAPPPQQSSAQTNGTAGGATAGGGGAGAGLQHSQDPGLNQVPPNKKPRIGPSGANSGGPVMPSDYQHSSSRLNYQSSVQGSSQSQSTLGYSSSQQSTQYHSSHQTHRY
T1 sequence (Q8R3L8 whole entry, looked up): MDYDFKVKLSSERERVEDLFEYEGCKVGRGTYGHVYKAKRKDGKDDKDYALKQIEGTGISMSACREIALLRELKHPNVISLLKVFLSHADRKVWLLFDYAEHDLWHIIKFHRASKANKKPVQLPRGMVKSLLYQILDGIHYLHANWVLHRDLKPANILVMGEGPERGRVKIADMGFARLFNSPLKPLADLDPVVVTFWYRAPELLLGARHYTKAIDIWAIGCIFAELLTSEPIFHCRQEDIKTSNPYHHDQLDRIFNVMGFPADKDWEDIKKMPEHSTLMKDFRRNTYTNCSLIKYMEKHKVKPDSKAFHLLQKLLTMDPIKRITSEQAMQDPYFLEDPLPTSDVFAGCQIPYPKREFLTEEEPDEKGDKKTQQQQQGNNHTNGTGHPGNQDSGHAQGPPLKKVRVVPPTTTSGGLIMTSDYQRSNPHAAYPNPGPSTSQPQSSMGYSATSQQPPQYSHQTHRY
Sequence of Casein kinase I isoform alpha-like (Homo sapiens) (Q8N752 whole entry, the tested form may be a part, canonical isoform): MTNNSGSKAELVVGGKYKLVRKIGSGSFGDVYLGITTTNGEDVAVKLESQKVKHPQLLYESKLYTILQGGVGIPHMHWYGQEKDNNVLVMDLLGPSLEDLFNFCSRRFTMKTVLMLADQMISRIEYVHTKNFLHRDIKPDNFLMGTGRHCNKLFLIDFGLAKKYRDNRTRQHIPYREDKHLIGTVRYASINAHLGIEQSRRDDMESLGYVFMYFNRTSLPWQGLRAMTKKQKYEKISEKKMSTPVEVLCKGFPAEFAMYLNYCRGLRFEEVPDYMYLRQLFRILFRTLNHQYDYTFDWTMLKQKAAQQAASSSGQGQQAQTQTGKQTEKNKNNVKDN
Sequence of Casein kinase I isoform alpha (Homo sapiens) (P48729 2-337 limits assumed): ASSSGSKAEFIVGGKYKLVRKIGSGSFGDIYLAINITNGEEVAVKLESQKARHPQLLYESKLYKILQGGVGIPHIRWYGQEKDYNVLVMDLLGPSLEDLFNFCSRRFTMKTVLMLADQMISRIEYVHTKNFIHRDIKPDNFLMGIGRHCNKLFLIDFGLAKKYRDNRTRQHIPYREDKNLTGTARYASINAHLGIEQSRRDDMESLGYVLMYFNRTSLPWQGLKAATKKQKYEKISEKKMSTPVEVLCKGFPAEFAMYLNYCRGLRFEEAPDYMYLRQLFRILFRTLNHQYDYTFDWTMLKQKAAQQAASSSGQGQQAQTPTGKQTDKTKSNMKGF
Sequence of Casein kinase I isoform delta (Homo sapiens) (P48730 whole entry, looked up, canonical isoform): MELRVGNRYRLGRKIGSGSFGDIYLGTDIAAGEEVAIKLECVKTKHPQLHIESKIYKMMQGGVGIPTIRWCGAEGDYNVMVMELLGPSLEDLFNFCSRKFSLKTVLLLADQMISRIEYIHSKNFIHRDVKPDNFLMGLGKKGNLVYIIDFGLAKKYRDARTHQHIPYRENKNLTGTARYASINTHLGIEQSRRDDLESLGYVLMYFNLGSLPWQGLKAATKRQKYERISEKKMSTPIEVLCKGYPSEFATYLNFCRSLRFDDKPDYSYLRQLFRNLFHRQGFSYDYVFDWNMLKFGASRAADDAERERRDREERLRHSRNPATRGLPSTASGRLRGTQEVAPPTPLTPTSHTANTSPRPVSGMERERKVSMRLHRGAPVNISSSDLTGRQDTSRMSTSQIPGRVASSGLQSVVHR
Sequence of Mitogen-activated protein kinase 14 (Homo sapiens) (Q16539 whole entry): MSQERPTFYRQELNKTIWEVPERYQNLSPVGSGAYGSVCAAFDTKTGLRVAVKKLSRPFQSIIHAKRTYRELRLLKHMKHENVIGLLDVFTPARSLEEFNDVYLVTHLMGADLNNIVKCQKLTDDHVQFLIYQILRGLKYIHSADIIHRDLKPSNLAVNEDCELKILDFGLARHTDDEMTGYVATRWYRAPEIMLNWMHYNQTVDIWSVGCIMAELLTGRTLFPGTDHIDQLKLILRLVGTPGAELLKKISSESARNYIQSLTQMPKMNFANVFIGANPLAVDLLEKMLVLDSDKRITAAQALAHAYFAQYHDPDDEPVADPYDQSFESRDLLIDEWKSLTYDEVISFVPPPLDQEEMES
Sequence of Cyclin-dependent kinase 19 (Homo sapiens) (Q9BWU1 whole entry): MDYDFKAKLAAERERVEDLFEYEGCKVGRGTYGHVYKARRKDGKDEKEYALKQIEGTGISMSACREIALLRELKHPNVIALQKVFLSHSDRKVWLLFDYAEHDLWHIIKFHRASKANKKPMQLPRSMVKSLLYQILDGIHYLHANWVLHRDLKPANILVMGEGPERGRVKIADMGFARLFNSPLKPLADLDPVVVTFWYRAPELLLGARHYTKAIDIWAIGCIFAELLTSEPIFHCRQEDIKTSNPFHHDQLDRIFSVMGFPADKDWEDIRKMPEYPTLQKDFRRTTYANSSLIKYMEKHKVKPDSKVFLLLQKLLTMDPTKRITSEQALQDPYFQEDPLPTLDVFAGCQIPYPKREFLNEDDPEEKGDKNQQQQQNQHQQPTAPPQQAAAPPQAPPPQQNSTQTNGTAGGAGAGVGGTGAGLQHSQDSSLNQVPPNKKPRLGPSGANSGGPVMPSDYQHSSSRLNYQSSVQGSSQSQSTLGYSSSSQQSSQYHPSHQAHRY
Sequence of Serine/threonine-protein kinase pim-1 (Homo sapiens) (P11309 whole entry, looked up, canonical isoform): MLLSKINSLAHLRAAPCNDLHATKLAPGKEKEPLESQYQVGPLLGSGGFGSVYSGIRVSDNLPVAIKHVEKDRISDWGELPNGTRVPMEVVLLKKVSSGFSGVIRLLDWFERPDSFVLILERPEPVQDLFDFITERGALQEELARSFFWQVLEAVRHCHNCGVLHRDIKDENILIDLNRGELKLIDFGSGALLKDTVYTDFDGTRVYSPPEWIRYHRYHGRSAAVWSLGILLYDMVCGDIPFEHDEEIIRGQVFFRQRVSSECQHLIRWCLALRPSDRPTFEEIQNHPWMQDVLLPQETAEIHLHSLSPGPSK
Sequence of Homeodomain-interacting protein kinase 1 (Homo sapiens) (Q86Z02 whole entry, looked up, canonical isoform): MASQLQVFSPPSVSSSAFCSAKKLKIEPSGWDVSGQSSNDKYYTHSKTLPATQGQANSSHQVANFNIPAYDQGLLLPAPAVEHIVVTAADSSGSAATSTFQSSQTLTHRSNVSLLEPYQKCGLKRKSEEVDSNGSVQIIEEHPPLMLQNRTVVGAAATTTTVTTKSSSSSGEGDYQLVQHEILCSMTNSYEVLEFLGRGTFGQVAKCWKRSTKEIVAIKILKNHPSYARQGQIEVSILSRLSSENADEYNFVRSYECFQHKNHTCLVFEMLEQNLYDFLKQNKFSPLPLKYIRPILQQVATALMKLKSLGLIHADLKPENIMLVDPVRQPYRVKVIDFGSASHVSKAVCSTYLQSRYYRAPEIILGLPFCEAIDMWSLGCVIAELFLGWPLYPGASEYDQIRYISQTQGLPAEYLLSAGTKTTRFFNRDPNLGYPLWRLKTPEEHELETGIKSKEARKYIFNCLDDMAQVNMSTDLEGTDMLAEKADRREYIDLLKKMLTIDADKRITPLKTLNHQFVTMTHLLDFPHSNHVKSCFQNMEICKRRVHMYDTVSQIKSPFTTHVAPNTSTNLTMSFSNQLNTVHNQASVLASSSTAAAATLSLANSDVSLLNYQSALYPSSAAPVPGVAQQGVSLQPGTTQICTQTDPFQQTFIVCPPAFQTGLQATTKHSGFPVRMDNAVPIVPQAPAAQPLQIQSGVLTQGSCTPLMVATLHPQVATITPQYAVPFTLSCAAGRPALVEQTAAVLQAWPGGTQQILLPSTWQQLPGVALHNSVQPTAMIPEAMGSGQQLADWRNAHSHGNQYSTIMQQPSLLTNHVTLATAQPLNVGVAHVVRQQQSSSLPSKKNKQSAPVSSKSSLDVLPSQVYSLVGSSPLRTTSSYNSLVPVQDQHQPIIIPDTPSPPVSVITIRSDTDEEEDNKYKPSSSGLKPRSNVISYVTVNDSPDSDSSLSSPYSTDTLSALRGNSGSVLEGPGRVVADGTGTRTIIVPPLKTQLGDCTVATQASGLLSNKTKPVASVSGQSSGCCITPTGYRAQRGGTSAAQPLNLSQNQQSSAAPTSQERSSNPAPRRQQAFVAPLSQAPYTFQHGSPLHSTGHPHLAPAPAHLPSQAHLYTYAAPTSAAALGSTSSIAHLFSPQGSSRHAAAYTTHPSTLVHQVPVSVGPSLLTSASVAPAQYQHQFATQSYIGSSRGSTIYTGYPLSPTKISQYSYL

With `COc1ccc(-c2cc(C3CC3)nc3sc(C(N)=O)c(N)c23)cc1` the Activity [1] was “Active”.
With `CN(C)c1ccnc2sc(C(N)=O)c(N)c12` the inhibition [2] was “Dose-dependent effect” and the Activity [1] was “Active”.
For `Cn1ncc2cc(-c3cnc(N)c(Cl)c3N3CCC4(CCNC4=O)CC3)ccc21`, the ECmax [3] was “inactive” and the Activity [1] was “Active”.
In the case of `Cn1cc(-c2ccc(-c3cncc(Cl)c3N3CCC4(CCNC4=O)CC3)cc2)cn1`, the Activity [1] was “Active”.
For `N#Cc1ccc2ncnc(NCCc3ccccc3)c2c1`, the Activity [4] was 65%, the Activity [5] was 77% and the Activity [1] was “Active”.
In the case of `CN1CCN(C(=O)c2ccc3cc(CCNc4ncnc5ccc(C#N)cc45)ccc3c2)CC1`, the Activity [6] was “Active”, the Activity [7] was “Active” and the Activity [8] was “Active”. The Activity [9] was “Active” and the Activity [1] was “Active”.
For `Cc1c(C(N)=O)sc2nc(C(F)(F)F)cc(N)c12`, the Activity [1] was “Active”.
For `CN(C)C(=O)Cc1ccc(N2CCCN(c3ccnc4sc(C(N)=O)c(N)c34)CC2)cc1`, the Activity [10] was 63%, the Activity [6] was “Active” and the Activity [11] was 70%. For the same compound, the Activity [7] was “Active”, the Activity [8] was “Active” and the Activity [9] was “Active”. The inhibition [2] was “Dose-dependent effect” and the Activity [1] was “Active”.
With `NC(=O)c1sc2nccc(N3CCCN(c4ccccc4)CC3)c2c1N` the inhibition [2] was “Dose-dependent effect” and the Activity [1] was “Active”.
With `CCc1nc2sc(C(N)=O)c(N)c2c2c1CCCC2` the Activity [1] was “Active”.
In the case of `Cc1c(Br)c(Br)c2c3c1nc(N1CCNCC1)n3CCC2`, the Activity [6] was “Active”, the Activity [7] was “Active” and the Activity [8] was “Active”. The Activity [9] was “Active” and the Activity [1] was “Active”.
In the case of `COCc1cc(C)nc2sc(C(N)=O)c(N)c12`, the Activity [12] was 88%, the Activity [13] was 46% and the Activity [14] was 50%. It also gave an Activity [15] of 41%, an Activity [16] of 73% and an Activity [17] of 25%. The Activity [18] was 72%, the Activity [19] was 10% and the Activity [20] was 11%. It also gave an Activity [21] of 0%, an Activity [22] of 61% and an Activity [23] of 67%. The Activity [24] was 94%, the Activity [25] was 84% and the Activity [1] was “Active”. The Activity [26] was 95%, the Activity [27] was 84% and the Activity [28] was 87%. The Activity [29] was 14%.
